Measurements taken from patent US9303069B2, “Peptides for treating cancer” (University of Mississippi Medical Center, priority 2014, dated 2016).
Ends that are not written are not given here.

What was measured:
[1] = tested on: HOSE, HOSE/IRIS, SKOV3, OVCAR3, OVCAR420 and OV-90 cells; experiment: Survival of ovarian cell lines after siRNA transfection followed by IRIS peptide; format: cell-based, human; conditions: then increasing concentrations of IRIS peptide 24 hours
Protocol: To establish the specificity of this peptide further, it was assumed that it would not affect cells already depleted from BRCA1-IRIS. To do that HOSE, HOSE/IRIS, SKOV3, OVCAR3, OVAC420 and OV-90 cells were first transfected with luciferase (as control, hereafter siLuc) or BRCA1-IRIS (hereafter siIRIS) specific siRNAs for 48 hours before they were exposed to increasing concentrations of IRIS peptide for another 24 hours.
Cell viability measurement. Cell viability under different experimental conditions was determined using the MTS assay or cell. […] Cell viability (%) was expressed as a ratio to control cells×100. Growth inhibition was also determined by manually counting cells in five different microscopic fields. Change in cell numbers (fold) was expressed as a ratio to control cells×100. […]
Transfections of siRNA. siRNAs for human ErbB2 and TrkB were purchased from Ambion and Santa Cruz Biotechnology, USA. […] Cell viability was evaluated by MTS or by manual counting after 72 hours of siRNA exposure alone or in combination with cisplatin exposure (for an additional 24 hours).

[2] = tested on: HOSE and HOSE/IRIS cells; experiment: Survival of HOSE versus HOSE/IRIS cells; format: cell-based, human; conditions: pre-treatment with 5 μM of IRIS peptide
Protocol: To test that, HOSE or HOSE/IRIS cells were incubated for 24 hours with 10 μM of ErbB2 (CP-724714), EGFR (Erlotinib), TrkB (K252a), JNK (SP600125), p38 (SB203580), ERK (PD98059) and PI3′K/AKT (LY294002) inhibitors. […] Taken together, BRCA1-IRIS overexpression activates AKT and ERK, thereby inactivating FOXO3a and promoting Cyclin D1, survivin, Bcl-2 and NF-κB expression and suppressing p27 expression (FIG. 15).
HOSE cells overexpressing IRIS show a higher degree of resistance to cisplatin than HOSE cells (compare blue to black line in FIG. 30).
Cell viability measurement. Cell viability under different experimental conditions was determined using the MTS assay […]. Briefly, SKOV3, OVACAR3, HOSE and HOSE/IRIS cells (2.5×10^4 cells per well) were seeded in 96 well plates and incubated overnight at 37° C. in 10% humidified CO2 atmosphere in varying concentrations of IRIS peptide, or inhibitors of ErbB2 (CP-724714), EGFR (Erlotinib), TrkB (K252a), JNK (SP600125), p38 (SB203580), ERK (PD98059) and PI3′K/AKT (LY294002) inhibitors for 24 hours at 37° C. Cell Titer 96® Aqueous (Promega, Madison, Wis., USA) was used to measure viability following manufactures instructions. Cell viability (%) was expressed as a ratio to control cells×100. Growth inhibition was also determined by manually counting cells in five different microscopic fields. Change in cell numbers (fold) was expressed as a ratio to control cells×100. All experiments were done in at least triplicates, three different times. * is p≦0.05, ** is p≦0.001 and *** is p≦0.0001.

[3] = tested on: SKOV3 cells; experiment: Three-dimensional (3D) growth / acini formation in matrigel, SKOV3; format: cell-based, human
[4] = tested on: SKOV3 cells; experiment: Hanging drops (anchorage independent growth), SKOV3; format: cell-based, human; conditions: IRIS peptide 5 μM versus scrambled peptide
Protocol: Hanging drops: In this technique, the anchorage independent growth ability of cells was measured.
Hanging Drop Method. Single-cell suspensions were made from monolayer cultures in growth medium. Cell density used was 250 cells per drop (20 μl) of medium dispensed onto a 6 cm dish (Corning Life Sciences, Union City, Calif.). The dish was then inverted, the drops were held in place by surface tension, and cells accumulated at the free liquid-air interface. The dishes were placed on a tray with water and incubated under standard conditions. Hanging cell-drops formed was analyzed using microscope. All experiments were done in triplicate.

[5] = tested on: HME, MDA-MB-231, MDA-MB-468 and BT549 cells; experiment: Survival of breast cell lines after siRNA transfection followed by IRIS peptide; format: cell-based, human; conditions: siRNA 48 hours, then IRIS peptide 24 hours
Protocol: To rule out any off target effect of this peptide, HME, MDA-MB-231, MDA-MB-468 and BT549 cells were first transfected with luciferase (siLuc) or BRCA1-IRIS (siIRIS) siRNA for 48 hours before they were exposed to increasing concentrations of IRIS peptide for an additional 24 hours. As would be expected from treatments that target the same target, whether inactivating BRCA1-IRIS (FIG. 81) or depleting its mRNA first (FIG. 82) the percentages of cells remained following these treatments were identical (see FIG. 83).
Small interfering RNA transfections. Specific siRNAs for luciferase (negative control) or human BRCA1-IRIS were obtained from Ambion, USA. Transfection was done using Oligofectamine™ reagent (GibcoBRL Inc, USA) and standard protocol (for reference see ElShamy and Livingston, 2004). Knockdwon of the target protein was usually confirmed by Western blotting 72 hours later. Cell viability was evaluated by MTS or by manual counting after 72 hours of siRNA transfection or combined with paclitaxel (24 hour exposure). Each experiment was done in triplicate, repeated three separate times

[6] = tested on: AKT, p-AKT, p-FOXO and FOXO3a; experiment: Signalling proteins in MDA-MB-231 and MDA-MB-468 cells (Western); format: cell-based, human
Description: This was completely in line with decreased MDM2 and Skp2 (the ubiquitin ligases responsible for p-FOXO degradation) expression in BRCA1-IRIS silenced and BRCA1-IRIS and AKT inactivated cells (FIG. 87).

[7] = tested on: BT549 cells; conditions: 48 h
Protocol: All cell lines were exposed to increasing concentrations of paclitaxel and BRCA1-IRIS expression, and cells' viability was then measured.
Cell viability measurement. Cell viability under different experimental conditions was determined using the MTS assay. Briefly, cells (2.5×10^4 cells per well) were seeded in 96-well plates and incubated overnight at 37° C. in 10% humidified CO2 atmosphere. The next day they were incubated with varying concentration of peptide, or inhibitors for 24 hours at 37° C. Cell viability was determined using cell Titer 96® Aqueous (Promega, Madison, Wis., USA) following manufacturer's instructions. Cell viability (%) was expressed as a ratio of treated cells to control cells×100. […] Each experiment was done in triplicate, repeated three separate times.

## RRIRPRPPRLPRPRPRPLPFPRPGIGTRFLCLPQSIYRSELNVYAFGEHILQISKYS [IRIS peptide]
[1]; siIRIS 48 hours
  effect of IRIS peptide on survival of BRCA1-IRIS silenced cells: not affected by the peptide at any of the concentrations tested
[1]; siLuc 48 hours
  effect of IRIS peptide on survival of siLuc-transfected cells: gradual decrease in the survival of all cell lines
[2]
  effect on survival: decreased survival of HOSE and HOSE/IRIS cells
[2]; then cisplatin
  sensitization to cisplatin: sensitized HOSE and HOSE/IRIS cells to low concentrations of cisplatin
[3]; SKOV3 cells
  decrease in ability to form invasive structures in matrigel: > 500 fold
[3]; SKOV3 in matrigel, day 10, peptide added every third day
  acini phenotype: slightly bigger/organized/round acini
[4]
  ability to form hanging drops: complete loss of ability
[5]
  percentages of cells remaining, IRIS peptide after siIRIS versus after siLuc: identical
[6]; 5 μM IRIS peptide or 10 μM LY294002, 24 hours
  total and activated AKT (p-AKT) levels: decreased the levels of total and activated AKT (p-AKT) in both cell lines
[6]; 5 μM IRIS peptide, 10 μM LY294002 or 10 μM PD98059, 24 hours
  p-FOXO and FOXO3a levels: decreased p-FOXO level and increased the levels of FOXO3a in both cell lines
[7]
  IC50: ~5 µM
